According to patent US11071720B2, “Cancer therapy” (UCL Business Ltd, priority 2016, dated 2021):

Legend:
MLL-AF6 = molecular target: T1, MLL-AF6 (Homo sapiens, UniProt P55196+Q03164); assay: Western blot analysis of MLL-fusion protein proteolysis in MLL-AF6 positive cell line SHI-I; type: cell-based; conditions: SHI-I cells
T1 construct: AF6 (AFDN, P55196) portion as fusion partner; host or cells: SHI-I (SHI-1) human leukaemic cell line
Procedure: (§1) Human leukaemic cell lines (DSMZ) were cultured in Roswell Park Memorial Institute (RPMI) medium (Invitrogen), supplemented with 10% heat-inactivated FCS, 100 U/ml Penicillin (Invitrogen), 100 μg/ml Streptomycin (Invitrogen) and 2 mM L-glutamine (Invitrogen) (complete RPMI), or in Iscove's Modified Dulbecco's Medium (IMDM) (Invitrogen) supplemented with 20% heat-inactivated FCS, 100 U/ml Penicillin (Invitrogen), 100 μg/ml Streptomycin (Invitrogen) and 2 mM L-glutamine (Invitrogen)(complete IMDM).
(§2) SHI-I (MLL-AF6), THP-I (MLL-AF9) and MV4-11 (MLL-AF4) cell lines were treated with 300 nM of Disulfiram (Aldrich) or concentrations indicated and 1 μM of Copper chloride (Acros Organics) unless indicated otherwise for 16 hours.
(§3) Cells were lysed in Sample Reducing Buffer (200 mM DTT, 2% sodium dodecyl sulphate (SDS), 10% v/v Glycerol, 0.02% v/v Bromophenol Blue, 125 mM Tris HCl pH 6.8). The lysates were incubated for 5 minutes at 100° C., vortexed for 10 seconds and centrifuged at 13,200 rpm for 10 minutes at 4° C. The total cell lysate was then collected and stored at −20° C. or loaded immediately onto a polyacrylamide gel.
The whole cell lysate was electrophoresed in 7% Bis-Tris polyacrylamide gel and transferred to a odyssey nitrocellulose membrane (LI-COR).
After blocked for 1 hr for non-specific binding in PBS-T with 5% of non-fat milk, blots were incubated with primary antibodies (MLL, mouse monoclonal 1:2000, Millipore; Vinculin, rabbit monoclonal 1:10000, Abcam) overnight at 4° C., followed by secondary IRDye conjugated antibodies (mouse IEDye800CW 1:10000; rabbit IRDye680RD 1:10000, LI-COR) at room temperature.
Blots were visualized using the Odyssey CLx.
SHI-I (MLL-AF6), and THP-I (MLL-AF9) cell lines were treated with 300 nM of Diethyldithiocarbamate (Aldrich) and 1 μM of Copper chloride (Acros Organics) unless indicated otherwise for 16 hours.
SHI-I (MLL-AF6) cell line was treated with 100 nM or 75 nm of Disulfiram (Aldrich) and 100 nM of Auranofin or 10 μM of Curcumin supplemented with 1 μM of Copper chloride (Acros Organics) for 16 hours.

MLL-AF9 = molecular target: T2, MLL-AF9 (Homo sapiens, UniProt P42568+Q03164); assay: Western blot analysis of MLL-fusion protein proteolysis in MLL-AF9 cells (V6MA.3, THP-1); type: cell-based
T2 construct: AF9 (MLLT3, P42568) portion as fusion partner; host or cells: THP-1 (endogenous fusion); V6MA.3 (MLL-AF9 immortalised cord blood)
Procedure: as §1, §2, §3
The whole cell lysate was electrophoresed in 7% Bis-Tris polyacrylamide gel and transferred to a odyssey nitrocellulose membrane (LI-COR). […]

MLL fusion proteins = assay: Western blot, proteolysis of MLL fusion proteins (effect of copper; primary patient sample); type: cell-based, human
[1] = tested on: MLL-AF9 and MLL-AF4 profiles; assay: Gene Set Enrichment Analysis of treated SHI-I cells; type: cell-based, human; conditions: 16 hrs in the presence of copper
Procedure: as §2

HOXA9/HOXA10 and MEIS1 = assay: RT-qPCR analysis of MLL target gene expression in SHI-I cells; type: cell-based, human; conditions: 16 hrs of treatment
Procedure: as §2

H3K4me3 = assay: Western blot analysis of H3K4me3 in MLL rearranged cell lines; type: cell-based, human; conditions: various MLL rearranged cell lines, 16 hrs in the presence of copper
MLL rearranged cells = assay: Methylcellulose colony formation assay; type: cell-based, human; conditions: 300 nM disulfiram; MLL rearranged cells vs other leukemic cell lines and CD34+ cord blood
Procedure: FIGS. 6A and 6B show, as explained in Example 1: in FIG. 6A, relative CFU corresponding to colony formation in MLL rearranged cells, other leukemic cell lines and CD34+ cord blood, in a methylcellulose colony formation assay after treatment of the cells with 300 nM disulfiram (equal numbers of cells were plated and normalised CFU frequency is shown, with error bars representing standard deviation); and, in FIG. 6B, the corresponding treated and control plates themselves.

[2] = 16 hrs treatment in the presence of copper

T1 sequence (Q03164 1146-1214 limits assumed, one chain of several): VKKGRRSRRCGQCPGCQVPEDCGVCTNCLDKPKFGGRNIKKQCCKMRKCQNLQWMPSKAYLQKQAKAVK
T2 sequence (Q03164 1147-1203 limits assumed, one chain of several): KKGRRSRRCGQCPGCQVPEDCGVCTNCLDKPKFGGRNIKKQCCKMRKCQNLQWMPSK

Compound | proteolysis of the MLL-fusion protein (Western blot) (MLL-AF6; [2]) | proteolysis of the MLL-fusion protein (Western blot) (MLL-AF9; MLL-AF9 positive cell line THP-1, 16 hrs treatment in the presence of copper) | proteolysis of the MLL-fusion protein (Western blot) (MLL-AF6; 16 hrs, in the presence of copper, with or without thioredoxin reductase inhibitors Auranofin and Curcumin) | proteolysis of the MLL-fusion protein (Western blot) (MLL-AF9; MLL-AF9 immortalised cord blood V6MA.3, 16 hrs treatment in the presence of copper) | proteolysis of the MLL-fusion protein (Western blot) (MLL fusion proteins) | Gene Set Enrichment Analysis versus published MLL-AF9 and MLL-AF4 profiles [1] | MLL target gene expression level of HOXA9/HOXA10 and MEIS1, normalised to 18S (RT-qPCR) (HOXA9/HOXA10 and MEIS1) | H3K4me3 level (Western blot) (H3K4me3) | relative CFU corresponding to colony formation (MLL rearranged cells)
CCN(CC)C(=S)S [diethyldithiocarbamate, Diethyldithiocarbamic acid] | showing proteolysis of the MLL-fusion protein | showing proteolysis of the MLL-fusion protein | – | – | – | – | – | – | –
CCN(CC)C(=S)SSC(=S)N(CC)CC [disulfiram] | showing proteolysis of the MLL-fusion protein | – | showing proteolysis of the MLL-fusion protein | showing proteolysis of the MLL-fusion protein | showing proteolysis of the MLL-fusion protein in a primary patient sample | negative enrichment to both published MLL-AF9 and MLL-AF4 profiles | efficient down-regulation of the target genes | showing a decrease in H3K4me3 | substantially higher effect than in other (non-MLL) leukemic cell lines and CD34+ cord blood
